Reference: patent US10618918B2, “Substituted boronic acids as antimicrobials” (priority 2015, dated 2020)
Where two headings read alike, the source gives them in different places.

Key:
[1] = system: KP1009 CTX-M-15; experiment: Aztreonam potentiation (MPC@4), strain KP1009 CTX-M-15; conditions: minimum BLI concentration inhibiting growth with aztreonam 4 μg/mL; tested up to 40 μg/mL
[2] = system: KP1086 OXA-48; experiment: Biapenem potentiation (MPC@1), strain KP1086 OXA-48; assay type: cell-based; conditions: minimum BLI concentration inhibiting growth with biapenem 1 μg/mL; tested up to 40 μg/mL
Protocol: (§1) Biapenem was present in the test medium at 1 μg/mL. […] Table 3 summarizes the BLI potency of biapenem potentiation (MPC@1) for two strains overexpressing class A (KPC) and class D (OXA-48) carbapenemases. Biapenem MIC for each strain is also shown.

[3] = system: KP1004 KPC-2; experiment: Aztreonam potentiation (MPC@4), strain KP1004 KPC-2; conditions: minimum BLI concentration inhibiting growth with aztreonam 4 μg/mL; tested up to 40 μg/mL
[4] = system: ECL1002; experiment: Aztreonam potentiation (MPC@4), strain ECL1002; conditions: minimum BLI concentration inhibiting growth with aztreonam 4 μg/mL; tested up to 40 μg/mL
[5] = system: KP1005 CTX-M-14; experiment: Tigemonam potentiation (MPC@4), strain KP1005 CTX-M-14; conditions: minimum BLI concentration inhibiting growth with tigemonam 4 μg/mL; tested up to 40 μg/mL
[6] = system: EC1010 CMY-6; experiment: Aztreonam potentiation (MPC@4), strain EC1010 CMY-6; conditions: minimum BLI concentration inhibiting growth with aztreonam 4 μg/mL; tested up to 40 μg/mL
[7] = target: T1, purified class A, C and D enzymes (β-lactamases) (Pseudomonas aeruginosa, UniProt P24735); experiment: biochemical; assay type: biochemical
T1 construct: rows headed: Ki (Pa-AmpC, NCF), uM; other: purified Pa-AmpC; nitrocefin (NCF) as reporter substrate

[8] = target: purified class A, C and D enzymes (β-lactamases) (Enterobacter cloacae, UniProt P05364); experiment: biochemical; assay type: biochemical
[9] = target: purified class A, C and D enzymes (β-lactamases) (Klebsiella pneumoniae, UniProt Q6XEC0); experiment: biochemical; assay type: biochemical
[10] = target: T2, purified class A, C and D enzymes (β-lactamases) (Acinetobacter baumannii, UniProt Q9L4P2); experiment: biochemical; assay type: biochemical; conditions: purified OXA-23; nitrocefin (NCF) as reporter substrate
T2 construct: rows headed: Ki (OXA-23, NCF), uM; other: purified OXA-23; nitrocefin (NCF) as reporter substrate

[11] = target: purified class A, C and D enzymes (β-lactamases) (Klebsiella pneumoniae, UniProt Q9F663); experiment: biochemical; assay type: biochemical
[12] = system: KP1004 KPC-2; experiment: Biapenem potentiation (MPC@1), strain KP1004 KPC-2; assay type: cell-based; conditions: minimum BLI concentration inhibiting growth with biapenem 1 μg/mL; tested up to 40 μg/mL
Protocol: as §1

[13] = system: AB1054 OXA-23; experiment: Meropenem potentiation (MPC@8), strain AB1054 OXA-23; assay type: cell-based, Acinetobacter baumannii; conditions: for MPM MPC8 AB1054 OXA-23: minimum BLI concentration inhibiting growth with meropenem 8 μg/mL, tested up to 20 μg/mL
[14] = system: ec302 TEM-10; experiment: Aztreonam potentiation (MPC@4), strain ec302 TEM-10; conditions: minimum BLI concentration inhibiting growth with aztreonam 4 μg/mL; tested up to 40 μg/mL
[15] = system: KP1010 SHV-12; experiment: Aztreonam potentiation (MPC@4), strain KP1010 SHV-12; conditions: minimum BLI concentration inhibiting growth with aztreonam 4 μg/mL; tested up to 40 μg/mL
[16] = system: ec308 SHV-5; experiment: Aztreonam potentiation (MPC@4), strain ec308 SHV-5; conditions: minimum BLI concentration inhibiting growth with aztreonam 4 μg/mL; tested up to 40 μg/mL
[17] = system: AB1053 OXA-72; experiment: Meropenem potentiation (MPC@8), strain AB1053 OXA-72; assay type: cell-based, Acinetobacter baumannii; conditions: for MPM MPC8 AB1053 OXA-72: minimum BLI concentration inhibiting growth with meropenem 8 μg/mL, tested up to 20 μg/mL
[18] = purified OXA-48, nitrocefin (NCF) as reporter substrate
[19] = purified KPC-2, nitrocefin (NCF) as reporter substrate

SMILES	AZT MPC4 CTX-M-15 KP1009 [1]	BPM MPC1 OXA-48 KP1086 [2]	AZT MPC4 KPC-2 KP1004 [3]	AZT MPC4 ECL1002 [4]	TIG MPC4 CTX-M-14 KP1005 [5]	AZT MPC4 CMY-6 EC1010 [6]	Ki [7] [nM]	Ki (P99, NCF), uM [8]	Ki (OXA-48, NCF), uM [9, 18]	Ki [10] [nM]	Ki (KPC-2, NCF), uM [11, 19]	BPM MPC1 KP1004 KPC-2 [12]	MPM MPC8 AB1054 OXA-23 [13]	AZT MPC4 TEM-10 ec302 [14]	AZT MPC4 SHV-12 KP1010 [15]	AZT MPC4 SHV-5 ec308 [16]	MPM MPC8 AB1053 OXA-72 [17]	other results
N#Cc1ccc2c(c1C(=O)[O-])O[B-](O)(O)CC2.[Na+].[Na+] [Compound 54, Disodium; 8-cyano-4,4-dihydroxy-5-oxa-4-boranuidabicyclo[4.4.0]deca-1(6),7,9-triene-7-carboxylate]	Z (Z = MPC@4 > 20 μg/mL)	Z (Z = MPC@1 > 20 μg/mL)	Z (Z = MPC@4 > 20 μg/mL)	Z (Z = MPC@4 > 20 μg/mL)	Z (Z = MPC@4 > 20 μg/mL)	Y (Y = 5 μg/mL < MPC@4 ≤ 20 μg/mL)	> 1000	Y (key: X = Ki ≤ 0.1 μM; Y = 0.1 μM < Ki ≤ 1 μM; Z = Ki > 1 μM)	X (X = Ki ≤ 0.1 μM)	100 to 1000	Z (Z = Ki > 1 μM)	X (X = MPC@1 ≤ 5 μg/mL)	Z (Z = MPC@1 > 20 μg/mL)	Z (Z = MPC@4 > 20 μg/mL)	Z (Z = MPC@4 > 20 μg/mL)	Z (Z = MPC@4 > 20 μg/mL)	Z (Z = MPC@1 > 20 μg/mL)	–
O=C([O-])c1cc(F)cc2c1O[B-](O)(O)CC2.[Na+].[Na+] [Compound 37, Disodium; 9-fluoro-4,4-dihydroxy-5-oxa-4-boranuidabicyclo[4.4.0]deca-1(6),7,9-triene-7-carboxylate]	Y (Y = 5 μg/mL < MPC@4 ≤ 20 μg/mL)	X (X = MPC@1 ≤ 5 μg/mL)	X (X = MPC@4 ≤ 5 μg/mL)	Y (Y = 5 μg/mL < MPC@4 ≤ 20 μg/mL)	Z (Z = MPC@4 > 20 μg/mL)	X (X = MPC@4 ≤ 5 μg/mL)	< 100	X (key: X = Ki ≤ 0.1 μM; Y = 0.1 μM < Ki ≤ 1 μM; Z = Ki > 1 μM)	X (X = Ki ≤ 0.1 μM)	< 100	X (X = Ki ≤ 0.1 μM)	X (X = MPC@1 ≤ 5 μg/mL)	Z (Z = MPC@1 > 20 μg/mL)	Y (Y = 5 μg/mL < MPC@4 ≤ 20 μg/mL)	X (X = MPC@4 ≤ 5 μg/mL)	Y (Y = 5 μg/mL < MPC@4 ≤ 20 μg/mL)	Z (Z = MPC@1 > 20 μg/mL)	–
O=C([O-])c1ccnc2c1O[B-](O)(O)CC2.[Na+].[Na+] [Compound 38, Disodium; 8,8-dihydroxy-7-oxa-2-aza-8-boranuidabicyclo[4.4.0]deca-1,3,5-triene-5-carboxylate]	Z (Z = MPC@4 > 20 μg/mL)	Y (Y = 5 μg/mL < MPC@1 ≤ 20 μg/mL)	Y (Y = 5 μg/mL < MPC@4 ≤ 20 μg/mL)	Z (Z = MPC@4 > 20 μg/mL)	Z (Z = MPC@4 > 20 μg/mL)	Y (Y = 5 μg/mL < MPC@4 ≤ 20 μg/mL)	> 1000	Z (key: X = Ki ≤ 0.1 μM; Y = 0.1 μM < Ki ≤ 1 μM; Z = Ki > 1 μM)	X (X = Ki ≤ 0.1 μM)	> 1000	Y (Y = 0.1 μM < Ki ≤ 1 μM)	X (X = MPC@1 ≤ 5 μg/mL)	Z (Z = MPC@1 > 20 μg/mL)	Z (Z = MPC@4 > 20 μg/mL)	Z (Z = MPC@4 > 20 μg/mL)	Z (Z = MPC@4 > 20 μg/mL)	Z (Z = MPC@1 > 20 μg/mL)	–
C[C@]1(Cn2ccnn2)[C@H](C(=O)O)N2C(=O)C[C@H]2S1(=O)=O [Tazobactam, reference compound]	Y (Y = 5 μg/mL < MPC@4 ≤ 20 μg/mL)	Y (Y = 5 μg/mL < MPC@1 ≤ 20 μg/mL)	Z (Z = MPC@4 > 20 μg/mL)	Z (Z = MPC@4 > 20 μg/mL)	Y (Y = 5 μg/mL < MPC@4 ≤ 20 μg/mL)	Y (Y = 5 μg/mL < MPC@4 ≤ 20 μg/mL)	–	–	–	–	–	Z (Z = MPC@1 > 20 μg/mL)	–	X (X = MPC@4 ≤ 5 μg/mL)	X (X = MPC@4 ≤ 5 μg/mL)	Y (Y = 5 μg/mL < MPC@4 ≤ 20 μg/mL)	–	Ki (OXA-48, NCF), uM [9]: Y (key: X = Ki ≤ 0.1 μM; Y = 0.1 μM < Ki ≤ 1 μM; Z = Ki > 1 μM); Ki (KPC-2, NCF), uM [11]: Z (key: X = Ki ≤ 0.1 μM; Y = 0.1 μM < Ki ≤ 1 μM; Z = Ki > 1 μM)
C[C@@H](O)[C@H]1C(=O)N2C(C(=O)O)=C(S[C@@H]3CN[C@H](C(=O)N(C)C)C3)[C@H](C)[C@H]12 [Meropenem, reference compound]	–	–	–	–	–	–	–	–	–	–	–	–	–	–	–	–	–	MIC ([13]; Acinetobacter baumannii, strain AB1054 OXA-23, meropenem alone): 32 µg/mL; MIC ([17]; Acinetobacter baumannii, strain AB1053 OXA-72, meropenem alone): > 64 µg/mL
C[S+]([O-])c1ccc2c(c1C(=O)[O-])O[B-](O)(O)CC2.[Na+].[Na+] (stereo not drawn) [Compound 40, Disodium; 4,4-dihydroxy-8-methylsulfinyl-5-oxa-4-boranuidabicyclo[4.4.0]deca-1(6),7,9-triene-7-carboxylate]	X (X = MPC@4 ≤ 5 μg/mL)	X (X = MPC@1 ≤ 5 μg/mL)	X (X = MPC@4 ≤ 5 μg/mL)	X (X = MPC@4 ≤ 5 μg/mL)	X (X = MPC@4 ≤ 5 μg/mL)	X (X = MPC@4 ≤ 5 μg/mL)	< 100	X (key: X = Ki ≤ 0.1 μM; Y = 0.1 μM < Ki ≤ 1 μM; Z = Ki > 1 μM)	X (X = Ki ≤ 0.1 μM)	–	X (X = Ki ≤ 0.1 μM)	X (X = MPC@1 ≤ 5 μg/mL)	Z (Z = MPC@1 > 20 μg/mL)	X (X = MPC@4 ≤ 5 μg/mL)	X (X = MPC@4 ≤ 5 μg/mL)	X (X = MPC@4 ≤ 5 μg/mL)	Z (Z = MPC@1 > 20 μg/mL)	–
